According to patent publication US8501806B2, “Methods for preventing or reducing colon carcinogenesis” (Nogra Pharma Limited, priority 2008, dated 2013):

Test system: colitis-associated colon cancer
Assay: AOM/DSS colitis-associated colon cancer
Type: in vivo, Balb/c mice
Details: i.p. 16 mg/kg/mouse every second day for 49 days
Description: Balb/c mice were given a first i.p. injection of AOM (10 mg/kg) on day O, Seven days after the AOM injection, the mice were given 2% DSS in the drinking water for 7 days. One week after the discontinuation of DSS administration, the mice were given a second i.p. injection of AOM (5 mg/kg). Then, 7 days after the second AOM injection, the mice were again given 2% DSS in the drinking water for 7 days. Two weeks later, the mice were randomly divided into two groups receiving i.p. injection of PBS or 16 mg/kg/mouse compound 14 every second day, for 49 days until sacrifice. (To rule out the possibility that compound 14 could interfere with the ongoing mucosal inflammation, treatment was started 2 weeks after the last DSS administration.) Mice were endoscopically screened, and neoplastic lesions were scored as previously described All mice were sacrificed at the end of the study, and colonic samples were used for histological analysis and isolating lamina propria mononuclear cells (LPMC). An aliquot of LPMC was assessed for the expression of CD4, CD8, and CD25 by flow-cytometry using the following antibodies (CD4: cat. 552051, BD Pharmigen, Milan, Italy; CD8: cat. 22150084S and CD25: cat. 22150253, Immunotools, Friesoythe, Germany), while the remaining LPMC were used for extracting RNA and assessing the expression of COX-2, TNFα, and IL-1β by real-time PCR. To this end, the following primers were used: COX-2: FWD: 5′-[…]-3′; REV: 5′-[…]-3′, TNFα: FWD: 5′-[…]-3′; REV: 5′-[…]-3, IL-1β: FWD: 5′-[…]-3′; REV: 5′-[…]-3.
Colonic sections were stained with hematoxylin and eosin (H&E). The degree of inflammation and the presence of neoplastic lesions were evaluated and graded by the same pathologist in a blinded fashion. Immunohistochemistry for PCNA was performed using a PCNA staining kit (ZYMED Laboratories, Carlsbad, Calif., U.S.A.) according to the manufacturer's instructions. […] A polypoidor flat lesion is seen in control and compound 14-treated mice respectively.

## COc1ccc(N)cc1C(=O)NO [compound 14, 2-methoxy-5-amino-N-hydroxybenzamide]
FIG. 8C
  multiplicity of neoplastic lesions (polypoid and flat): significantly reduced both types of lesions
  PCNA staining in normal colonic mucosa: no significant change
  PCNA staining of neoplastic lesions: confirmed the anti-proliferative effect
